{"source": "patent US20230051268A1", "about": "“USE OF L[…] TREATING INSOMNIA” (Eisai R&D Management Co., Ltd., priority 2019, published 2023)", "key": {"[1]": {"test": "Safety and tolerability assessment (TEAEs, ECGs, vital signs, laboratory tests) after single 10 mg dose", "format": "in vivo, human", "procedure": "(§1) On Day 1, the subjects were administered a single oral 10 mg dose of lemborexant with approximately 240 mL of water in the morning after an overnight fast. No food was allowed for at least 4 hours postdose. Water was allowed as desired except for 1 hour before and after drug administration.\nSafety was assessed by monitoring and documenting treat-emergent adverse events (TEAEs), ECGs, vital signs, weight, physical examinations, and clinical laboratory tests (urinalysis, hematology, and blood chemistry)."}, "[2]": {"test": "Single-dose pharmacokinetic study of lemborexant and metabolites M4, M9, M10 in subjects with mild or moderate hepatic impairment and healthy controls (plasma, LC-MS/MS)", "format": "in vivo, human", "settings": "for Ratio (%) (Test/Ref) of geometric mean AUC(0-inf) / Ratio (%) (Test/Ref) of geometric mean AUC(0-t) / Ratio (%) (Test/Ref) of geometric mean Cmax: lemborexant 10 mg single dose; for half-life / AUC(0-inf) / Vd/F / Cmax / AUC(0-t) / AUCu / CL/F / CLu/F: geometric mean (% CV); for Vd/F: read-out: Vz/F", "procedure": "A multicenter, single-dose, open-label, parallel-group study in subjects with mild or moderate hepatic impairment and matched (with regard to age [±10 years], sex, and body mass index [BMI, ±20%]) healthy subjects as controls was performed.\nThe primary objective of the study was to assess the effect of mild and moderate hepatic impairment on the PK of lemborexant after a single-dose administration.\nSecondary objectives of the study were: to evaluate the effects of hepatic impairment on the PK of lemborexant metabolites M4, M9, and M10; to evaluate the relationship between the PK parameters of lemborexant and its metabolites and the Child-Pugh classification score, serum albumin, total bilirubin, and PT; and to assess safety and tolerability of lemborexant following a single-dose administration in subjects with mild or moderate hepatic impairment and healthy control subjects.\nas §1\n(§2) The blood samples for PK assessments were collected at prespecified intervals up to 312 hours postdose administration. In addition, the blood samples for plasma protein binding assessments of lemborexant were collected from each subject at 2 time points; approximately 1 hour and 24 hours postdose. The subjects were discharged on Day 14 of the study. The end of the study was the date of the last study visit for the last subject.\n(§3) Blood samples (4 mL each) for PK assessments of lemborexant and its metabolites (M4, M9, and M10) were collected at predose (0 hour), 0.5, 1, 1.5, 2, 3, 4, 6, 8, 12, 24, 48, 72, 96, 120, 144, 168, 216, 264, and 312 hours postdose. In addition, blood samples (12 mL per time point) for protein binding of lemborexant and its metabolites (M4, M9, and M10) were collected at 1 and 24 hours postdose matching the PK sample collection at those time points.\n(§4) Total mean plasma concentrations of lemborexant and lemborexant metabolites (M4, M9, and M10) were measured by validated liquid chromatography with tandem mass spectrometry (LC-MS/MS). Unbound lemborexant concentrations of lemborexant, M4, M9, and M10 were also measured using a similar validated LC-MS/MS method following equilibrium dialysis."}, "[3]": {"test": "Plasma protein binding (unbound fraction) by equilibrium dialysis and LC-MS/MS, samples 1 and 24 hours postdose", "format": "in vitro ADME", "settings": "human, oral, 10 mg, lemborexant 10 mg single oral dose, geometric mean (% CV)", "procedure": "as §2, §3, §4"}, "[4]": {"settings": "human, plasma, po, 10 mg, lemborexant 10 mg single oral dose, normal hepatic function (n = 8)"}, "[5]": {"settings": "lemborexant 10 mg single oral dose, mild hepatic impairment (n = 7)"}, "[6]": {"settings": "lemborexant 10 mg single oral dose, moderate hepatic impairment (n = 6)"}, "[7]": {"settings": "lemborexant 10 mg single oral dose, normal hepatic function (n = 8)"}, "[8]": {"settings": "moderate hepatic impairment, 10 mg"}}, "note": "Values joined by “and” are separate entries in the source; they are usually repeats but may differ in a detail not shown here. Equal entries are not always repeated. Where two headings read alike, the source gives them in different places. Marks after values point to notes of the source that are not given here.", "data": [{"smiles": "Cc1ncc(OC[C@@]2(c3cccc(F)c3)C[C@H]2C(=O)Nc2ccc(F)cn2)c(C)n1", "note": "[lemborexant, (1R,2S)-2-(((2,4-dimethylpyrimidin-5-yl)oxy)methyl)-2-(3-fluorophenyl)-N-(5-fluoropyridin-2-yl)cyclopropanecarboxamide]", "values": [{"measurement": "subjects who experienced a TEAE", "setting": "[1]; Class A (mild hepatic impairment)", "result": "7 (87.5%) subjects (%)"}, {"measurement": "subjects who experienced a TEAE", "setting": "[1]; Class B (moderate hepatic impairment)", "result": "6 (75.0%) subjects (%)"}, {"measurement": "subjects who experienced a TEAE", "setting": "[1]; Healthy Controls", "result": "7 (87.5%) subjects (%)"}, {"measurement": "subjects who experienced a TEAE", "setting": "[1]; all 24 subjects", "result": "20 (83.3%) subjects (%)"}, {"measurement": "TEAEs potentially related to cataplexy", "setting": "[1]; all cohorts", "result": "no TEAEs potentially related to cataplexy"}, {"measurement": "TEAEs that led to subject discontinuation", "setting": "[1]; all cohorts", "result": "none"}, {"measurement": "severity of TEAEs", "setting": "[1]; all cohorts", "result": "mild in severity"}, {"measurement": "SAEs reported", "setting": "[1]; all cohorts, single 10 mg dose", "result": "No SAEs were reported"}, {"measurement": "Ratio (%) (Test/Ref) of geometric mean AUC(0-inf)", "setting": "[2]; Mild: Normal", "result": 125.03, "unit": "%"}, {"measurement": "Ratio (%) (Test/Ref) of geometric mean AUC(0-t)", "setting": "[2]; Mild: Normal", "result": 131.91, "unit": "%"}, {"measurement": "Ratio (%) (Test/Ref) of geometric mean Cmax", "setting": "[2]; Mild: Normal", "result": 157.86, "unit": "%"}, {"measurement": "Ratio (%) (Test/Ref) of geometric mean AUC(0-inf)", "setting": "[2]; Moderate: Normal", "result": 153.56, "unit": "%"}, {"measurement": "Ratio (%) (Test/Ref) of geometric mean AUC(0-t)", "setting": "[2]; Moderate: Normal", "result": 149.52, "unit": "%"}, {"measurement": "Ratio (%) (Test/Ref) of geometric mean Cmax", "setting": "[2]; Moderate: Normal", "result": 122.20, "unit": "%"}, {"measurement": "Tmax", "setting": "[2]; human, plasma, oral, 10 mg, normal, mild and moderate cohorts, 10 mg tablet, read-out: median tmax across cohorts", "result": "1 to 1.25", "unit": "h"}, {"measurement": "half-life", "setting": "[2]; human, plasma, po, 10 mg, lemborexant 10 mg single oral dose, mild hepatic impairment (lemborexant n = 7)", "result": 73.7, "unit": "h"}, {"measurement": "AUC(0-inf)", "setting": "[2]; human, plasma, po, 10 mg, lemborexant 10 mg single oral dose, mild hepatic impairment (lemborexant n = 7), read-out: AUC(0-inf)", "result": 0.567, "unit": "µg·h/mL"}, {"measurement": "Vd/F", "setting": "[2]; human, plasma, po, 10 mg, lemborexant 10 mg single oral dose, mild hepatic impairment (n = 7)", "result": 1880, "unit": "L"}, {"measurement": "Cmax", "setting": "[2]; human, plasma, po, 10 mg, lemborexant 10 mg single oral dose, mild hepatic impairment (n = 8)", "result": 0.0629, "unit": "µg/mL"}, {"measurement": "AUC(0-t)", "setting": "[2]; human, plasma, po, 10 mg, lemborexant 10 mg single oral dose, mild hepatic impairment (n = 8), read-out: AUC(0-t)", "result": 0.574, "unit": "µg·h/mL"}, {"measurement": "Tmax", "setting": "[2]; human, plasma, po, 10 mg, lemborexant 10 mg single oral dose, mild hepatic impairment (n = 8), median (range), read-out: tmax", "result": 1, "unit": "h"}, {"measurement": "half-life", "setting": "[2]; human, plasma, po, 10 mg, lemborexant 10 mg single oral dose, moderate hepatic impairment (lemborexant n = 6)", "result": 105, "unit": "h"}, {"measurement": "AUC(0-inf)", "setting": "[2]; human, plasma, po, 10 mg, lemborexant 10 mg single oral dose, moderate hepatic impairment (lemborexant n = 6), read-out: AUC(0-inf)", "result": 0.696, "unit": "µg·h/mL"}, {"measurement": "Vd/F", "setting": "[2]; human, plasma, po, 10 mg, lemborexant 10 mg single oral dose, moderate hepatic impairment (n = 6)", "result": 2170, "unit": "L"}, {"measurement": "Cmax", "setting": "[2]; human, plasma, po, 10 mg, lemborexant 10 mg single oral dose, moderate hepatic impairment (n = 8)", "result": 0.0487, "unit": "µg/mL"}, {"measurement": "AUC(0-t)", "setting": "[2]; human, plasma, po, 10 mg, lemborexant 10 mg single oral dose, moderate hepatic impairment (n = 8), read-out: AUC(0-t)", "result": 0.651, "unit": "µg·h/mL"}, {"measurement": "Tmax", "setting": "[2]; human, plasma, po, 10 mg, lemborexant 10 mg single oral dose, moderate hepatic impairment (n = 8), median (range), read-out: tmax", "result": 1, "unit": "h"}, {"measurement": "Cmax", "setting": "[2]; [4]", "result": 0.0398, "unit": "µg/mL"}, {"measurement": "half-life", "setting": "[2]; [4]", "result": 67, "unit": "h"}, {"measurement": "AUC(0-inf)", "setting": "[2]; human, plasma, po, 10 mg, lemborexant 10 mg single oral dose, normal hepatic function (n = 8), read-out: AUC(0-inf)", "result": 0.453, "unit": "µg·h/mL"}, {"measurement": "AUC(0-t)", "setting": "[2]; human, plasma, po, 10 mg, lemborexant 10 mg single oral dose, normal hepatic function (n = 8), read-out: AUC(0-t)", "result": 0.435, "unit": "µg·h/mL"}, {"measurement": "Vd/F", "setting": "[2]; [4]", "result": 2130, "unit": "L"}, {"measurement": "Tmax", "setting": "[2]; human, plasma, po, 10 mg, lemborexant 10 mg single oral dose, normal hepatic function (n = 8), median (range), read-out: tmax", "result": 1.25, "unit": "h"}, {"measurement": "AUC(0-inf)", "setting": "[2]; lemborexant 10 mg single oral dose, mild hepatic impairment (lemborexant n = 7)", "result": 0.567, "unit": "µg·h/mL"}, {"measurement": "AUCu", "setting": "[2]; [5]", "result": "34.9 (52.6)^b h * ng/mL"}, {"measurement": "CL/F", "setting": "[2]; [5]", "result": "17.6 L/h and 17.6 (52.0)^b L/h"}, {"measurement": "CLu/F", "setting": "[2]; [5]", "result": "287 (52.6)^b L/h"}, {"measurement": "AUC(0-t)", "setting": "[2]; lemborexant 10 mg single oral dose, mild hepatic impairment (n = 8)", "result": 0.574, "unit": "µg·h/mL"}, {"measurement": "AUC(0-inf)", "setting": "[2]; lemborexant 10 mg single oral dose, moderate hepatic impairment (lemborexant n = 6)", "result": 0.696, "unit": "µg·h/mL"}, {"measurement": "AUCu", "setting": "[2]; [6]", "result": "45.1 (42.6)^c h * ng/mL"}, {"measurement": "CL/F", "setting": "[2]; [6]", "result": "14.4 L/h and 14.4 (34.6)^c L/h"}, {"measurement": "CLu/F", "setting": "[2]; [6]", "result": "222 (42.6)^c L/h"}, {"measurement": "AUC(0-t)", "setting": "[2]; lemborexant 10 mg single oral dose, moderate hepatic impairment (n = 8)", "result": 0.651, "unit": "µg·h/mL"}, {"measurement": "AUCu", "setting": "[2]; [7]", "result": "27.1 (36.8) h * ng/mL"}, {"measurement": "CL/F", "setting": "[2]; [7]", "result": "22.1 L/h and 22.1 (33.9) L/h"}, {"measurement": "decrease of total body clearance compared with healthy subjects", "setting": "[2]; mild hepatic impairment, 10 mg", "result": 20, "unit": "%"}, {"measurement": "increase of AUC(0-inf) compared to healthy subjects", "setting": "[2]; mild hepatic impairment, 10 mg", "result": 25, "unit": "%"}, {"measurement": "increase of Cmax compared to healthy subjects", "setting": "[2]; mild hepatic impairment, 10 mg", "result": 58, "unit": "%"}, {"measurement": "exposure (geometric mean Cmax, AUC) compared with healthy control subjects", "setting": "[2]; mild or moderate hepatic impairment, single 10-mg tablet", "result": "higher"}, {"measurement": "decrease of total body clearance compared with healthy subjects", "setting": "[2]; [8]", "result": 35, "unit": "%"}, {"measurement": "increase of AUC(0-inf) compared to healthy subjects", "setting": "[2]; [8]", "result": 54, "unit": "%"}, {"measurement": "increase of Cmax compared to healthy subjects", "setting": "[2]; [8]", "result": 22, "unit": "%"}, {"measurement": "effects of mild and moderate hepatic impairment on PK (scatter plots, linear regression)", "setting": "[2]; vs Child-Pugh score, serum albumin, total bilirubin, MELD score, PT", "result": "small and similar"}, {"measurement": "fraction unbound", "setting": "[3]; mild hepatic impairment (n = 8)", "result": 0.063}, {"measurement": "fraction unbound", "setting": "[3]; moderate hepatic impairment (n = 8)", "result": 0.065}, {"measurement": "fraction unbound", "setting": "[3]; normal hepatic function (n = 8)", "result": 0.0597}]}]}
